Measurements taken from US20250332198A1, “TARGETED ELIMINATION OF SENESCENT CELLS BY GAMMA-DELTA T CELLS” (SENS RESEARCH FOUNDATION, priority 2022, published 2025).

Tests used:
[1] = target: T1, 3-hydroxy-3-methylglutaryl-CoA reductase (HMGCR) (Homo sapiens, UniProt P04035); experiment: Mevalonate pathway inhibition in SC, effect on cytotoxicity by Vδ2 T cells; type: cell-based; conditions: SC treated with the HMGCR inhibitor
T1 construct: endogenous in cells; host or cells: senescent cells (SC)
T1 sequence (P04035 1-888): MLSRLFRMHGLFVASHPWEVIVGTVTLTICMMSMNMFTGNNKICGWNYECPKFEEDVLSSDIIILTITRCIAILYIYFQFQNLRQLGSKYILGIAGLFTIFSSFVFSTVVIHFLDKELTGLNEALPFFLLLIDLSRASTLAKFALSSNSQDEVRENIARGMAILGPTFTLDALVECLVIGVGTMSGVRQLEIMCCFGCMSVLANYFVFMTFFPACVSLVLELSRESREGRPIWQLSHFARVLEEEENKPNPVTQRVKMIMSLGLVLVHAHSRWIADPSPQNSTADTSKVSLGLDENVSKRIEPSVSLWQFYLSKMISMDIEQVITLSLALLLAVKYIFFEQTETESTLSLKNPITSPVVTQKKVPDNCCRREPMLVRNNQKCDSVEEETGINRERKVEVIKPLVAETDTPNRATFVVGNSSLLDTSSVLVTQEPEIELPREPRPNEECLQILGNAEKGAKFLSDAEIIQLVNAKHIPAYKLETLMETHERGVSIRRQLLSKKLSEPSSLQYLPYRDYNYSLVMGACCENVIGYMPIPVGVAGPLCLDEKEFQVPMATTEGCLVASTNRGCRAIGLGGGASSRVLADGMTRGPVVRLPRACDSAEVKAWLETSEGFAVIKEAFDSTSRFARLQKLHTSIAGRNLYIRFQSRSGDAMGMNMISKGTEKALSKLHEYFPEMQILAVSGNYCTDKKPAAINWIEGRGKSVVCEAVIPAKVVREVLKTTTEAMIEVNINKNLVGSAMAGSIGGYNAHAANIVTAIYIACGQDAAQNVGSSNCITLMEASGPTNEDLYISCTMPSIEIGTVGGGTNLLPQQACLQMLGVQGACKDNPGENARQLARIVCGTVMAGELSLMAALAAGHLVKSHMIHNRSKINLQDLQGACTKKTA
Excerpt: NKG2D recognizes target cells based on their surface expression of ligands such as MICA. […] Briefly, phosphoantigens such as IPP (an intermediate metabolite of mevalonate pathway) bind to the intracellular domain of BTN3A, leading to a conformational change in the extracellular domain that is recognized by γδTCR. […] To determine the role of mevalonate pathway, we inhibited the rate-limiting enzyme 3-hydroxy-3-methylglutaryl-CoA reductase (HMGCR) with mevastain in SC and tested the effect on cytotoxicity by Vδ2 T cells.

macrophages = conditions: as reported; cited from earlier work
platelet = conditions: risk of causing thrombocytopenia; cited from earlier work

Row | SMILES | effect on Vδ2 T cell-mediated cytotoxicity toward SC [1] | effect on Vδ2 T cell-mediated cytotoxicity toward SC ([1]; listed as mevastain) | effect on macrophages (macrophages) | platelet toxicity (platelet)
1 | CC[C@H](C)C(=O)O[C@H]1CCC=C2C=C[C@H](C)[C@H](CC[C@@H]3C[C@@H](O)CC(=O)O3)[C@H]21 [mevastatin] | resistant to gamma delta T cells | significantly reduced Vδ2 T cell-mediated cytotoxicity | – | –
2 | O=c1c(O)c(-c2ccc(O)c(O)c2)oc2cc(O)ccc12 [fisetin] | – | – | destroy macrophages | –
3 | CC1(C)CCC(c2ccc(Cl)cc2)=C(CN2CCN(c3ccc(C(=O)NS(=O)(=O)c4ccc(N[C@H](CCN5CCOCC5)CSc5ccccc5)c(S(=O)(=O)C(F)(F)F)c4)cc3)CC2)C1 [ABT263, navitoclax] | – | – | destroy macrophages | dose-limiting platelet toxicity
